In US11292796B2 (SIGNAL PHARMACEUTICALS, LLC, priority 2008, dated 2022) one finds IC50 data, which are given here for 30 compounds.

For this test, the target named is T1, mTOR (Homo sapiens, UniProt P42345).
T1 construct: purchased Invitrogen PR8683A
T1 sequence (P42345 1360-2549 limits assumed): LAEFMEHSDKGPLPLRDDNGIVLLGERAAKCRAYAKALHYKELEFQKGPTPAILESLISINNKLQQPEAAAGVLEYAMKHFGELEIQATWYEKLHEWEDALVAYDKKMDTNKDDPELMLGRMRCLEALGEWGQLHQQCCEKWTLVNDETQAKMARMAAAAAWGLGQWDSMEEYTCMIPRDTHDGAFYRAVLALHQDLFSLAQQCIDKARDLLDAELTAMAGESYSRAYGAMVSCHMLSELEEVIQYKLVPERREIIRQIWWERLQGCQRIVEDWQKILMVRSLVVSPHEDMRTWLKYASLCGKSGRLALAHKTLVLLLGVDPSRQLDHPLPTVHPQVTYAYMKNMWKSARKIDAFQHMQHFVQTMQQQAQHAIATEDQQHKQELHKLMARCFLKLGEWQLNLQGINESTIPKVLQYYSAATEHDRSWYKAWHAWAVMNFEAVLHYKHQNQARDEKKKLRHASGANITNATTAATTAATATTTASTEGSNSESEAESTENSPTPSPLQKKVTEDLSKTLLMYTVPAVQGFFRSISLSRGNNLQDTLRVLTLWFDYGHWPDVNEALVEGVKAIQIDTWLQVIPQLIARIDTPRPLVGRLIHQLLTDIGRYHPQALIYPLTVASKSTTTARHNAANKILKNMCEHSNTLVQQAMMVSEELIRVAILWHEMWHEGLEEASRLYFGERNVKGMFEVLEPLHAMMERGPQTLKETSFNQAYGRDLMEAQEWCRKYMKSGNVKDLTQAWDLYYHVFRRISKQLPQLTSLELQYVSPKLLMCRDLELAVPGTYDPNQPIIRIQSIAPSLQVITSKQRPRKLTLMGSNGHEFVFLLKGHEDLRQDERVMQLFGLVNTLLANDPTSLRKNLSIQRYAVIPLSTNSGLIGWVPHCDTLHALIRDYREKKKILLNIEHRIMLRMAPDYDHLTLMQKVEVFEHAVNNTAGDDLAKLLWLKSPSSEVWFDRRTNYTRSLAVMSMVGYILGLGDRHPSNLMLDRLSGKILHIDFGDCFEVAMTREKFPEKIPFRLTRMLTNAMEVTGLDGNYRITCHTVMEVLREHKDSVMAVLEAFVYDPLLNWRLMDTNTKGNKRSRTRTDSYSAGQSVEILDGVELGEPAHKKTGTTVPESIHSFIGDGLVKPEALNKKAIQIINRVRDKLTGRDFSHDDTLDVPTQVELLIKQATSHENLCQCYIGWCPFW
In words: mTOR HTR-FRET assay. The test is classed as biochemical. To be noted: read-out: Act. Level (IC50 in mTor HTR-FRET assay). The gist of the method: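 Test compounds, taken from 10 mM DMSO stocks and diluted, were mixed with mTOR enzyme (0.200 μg/mL) in Tris buffer pH 7.4 with 100 mM NaCl, 0.1% Tween-20 and 1 mM DTT. ATP/substrate addition initiated the reaction, alongside compound-free controls.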
What is called IC50 is the concentration at which inhibition is half-maximal. Turning to `O=C1CNc2ncc(-c3ccnc(O)c3)nc2N1CCC1CCOCC1` [Example 178, 7-(2-hydroxypyridin-4-yl)-1-(2-(tetrahydro-2H-pyran-4-yl)ethyl)-3,4-dihydropyrazino[2,3-b]pyrazin-2(1H)-one], the IC50 lay in the range of 500 to 1000 nM.

Turning to `CC(C)(O)c1ccc(-c2cnc3c(n2)N(CC2CCCC2)C(=O)CN3)cn1` [Example 251, 1-(cyclopentylmethyl)-7-(6-(2-hydroxypropan-2-yl)pyridin-3-yl)-3,4-dihydropyrazino[2,3-b]pyrazin-2(1H)-one], the IC50 fell in the range of 500 to 1000 nM.

On to `CCN1C(=O)CNc2ncc(-c3ccc4[nH]ccc4n3)nc21` [Example 154, 1-ethyl-7-(1H-pyrrolo[3,2-b]pyridin-5-yl)-3,4-dihydropyrazino[2,3-b]pyrazin-2(1H)-one], for which the IC50 lay in the range of 1000 to 10000 nM.

With `CO[C@H]1CC[C@@H](CN2C(=O)CNc3ncc(-c4cnc(C(N)=O)cc4C)nc32)CC1` [Example 200, 5-(8-((cis-4-methoxycyclohexyl)methyl)-7-oxo-5,6,7,8-tetrahydropyrazino[2,3-b]pyrazin-2-yl)-4-methylpicolinamide], the IC50 lay in the range of 1000 to 10000 nM.

For `O=C1CNc2ncc(-c3ccc4[nH]ncc4c3)nc2N1CCC1CCOCC1` [Example 223, 7-(1H-indazol-5-yl)-1-(2-(tetrahydro-2H-pyran-4-yl)ethyl)-3,4-dihydropyrazino[2,3-b]pyrazin-2(1H)-one], the IC50 was in the range of 500 to 1000 nM.

`O=C1CN(CCC2CCOCC2)c2nc(-c3ccc(-c4nnc[nH]4)c(F)c3)cnc2N1` [Example 60, 6-(3-fluoro-4-(4H-1,2,4-triazol-3-yl)phenyl)-4-(2-(tetrahydro-2H-pyran-4-yl)ethyl)-3,4-dihydropyrazino[2,3-b]pyrazin-2(1H)-one]: the IC50 was in the range of 0.005 to 250 nM.

`O=C1CNc2ncc(-c3cccc4[nH]ncc34)nc2N1CCC1CCOCC1` [Example 181, 7-(1H-indazol-4-yl)-1-(2-(tetrahydro-2H-pyran-4-yl)ethyl)-3,4-dihydropyrazino[2,3-b]pyrazin-2(1H)-one]: the IC50 lay within 0.005 to 250 nM.

With `CO[C@@H]1CC[C@@H](N2CC(=O)Nc3ncc(-c4ccc(-c5nnc[nH]5)nc4C)nc32)C1` [Example 40, 4-((1R,3R)-3-methoxycyclopentyl)-6-(2-methyl-6-(4H-1,2,4-triazol-3-yl)pyridin-3-yl)-3,4-dihydropyrazino[2,3-b]pyrazin-2(1H)-one], the IC50 lay in the range of 0.005 to 250 nM.

As for `COCCN1CC(=O)Nc2ncc(-c3ccc(-c4nnc[nH]4)c(F)c3C)nc21` [Example 49, 6-(3-fluoro-2-methyl-4-(4H-1,2,4-triazol-3-yl)phenyl)-4-(2-methoxyethyl)-3,4-dihydropyrazino[2,3-b]pyrazin-2(1H)-one], the IC50 lay within 0.005 to 250 nM.

On to `Cc1nc(-c2nnc[nH]2)ccc1-c1cnc2c(n1)N(CC1CCOCC1)C(C)(C)C(=O)N2` [Example 74, 3,3-dimethyl-6-(2-methyl-6-(4H-1,2,4-triazol-3-yl)pyridin-3-yl)-4-((tetrahydro-2H-pyran-4-yl)methyl)-3,4-dihydropyrazino[2,3-b]pyrazin-2(1H)-one], for which the IC50 was 0.005 to 250 nM.

Turning to `O=C1CNc2ncc(-c3ccc4cn[nH]c4c3)nc2N1CCC1CCOCC1` [Example 212, 7-(1H-indazol-6-yl)-1-(2-(tetrahydro-2H-pyran-4-yl)ethyl)-3,4-dihydropyrazino[2,3-b]pyrazin-2(1H)-one], the IC50 lay in the range of 0.005 to 250 nM.

With `NC(=O)c1cccc(-c2cnc3c(n2)N(CCC2CCOCC2)C(=O)CN3)c1` [Example 205, 3-(7-oxo-8-(2-(tetrahydro-2H-pyran-4-yl)ethyl)-5,6,7,8-tetrahydropyrazino[2,3-b]pyrazin-2-yl)benzamide], the IC50 fell in the range of 1000 to 10000 nM.

In the case of `O=C1CN(CCC2CCOCC2)c2nc(-c3cnc4nc[nH]c4c3)cnc2N1` [Example 36, 6-(1H-imidazo[4,5-b]pyridin-6-yl)-4-(2-(tetrahydro-2H-pyran-4-yl)ethyl)-3,4-dihydropyrazino[2,3-b]pyrazin-2(1H)-one], the IC50 was in the range of 500 to 1000 nM.

`CO[C@H]1CC[C@H](CN2C(=O)CNc3ncc(-c4cc(F)c(-c5nc[nH]n5)cc4C)nc32)CC1` [Example 150, 7-(5-fluoro-2-methyl-4-(1H-1,2,4-triazol-3-yl)phenyl)-1-((trans-4-methoxycyclohexyl)methyl)-3,4-dihydropyrazino[2,3-b]pyrazin-2(1H)-one]: the IC50 was 0.005 to 250 nM.

Regarding `CO[C@H]1CC[C@@H](N2CC(=O)Nc3ncc(-c4ccc(-c5nnc[nH]5)nc4C)nc32)C1` [Example 38, 4-((1R,3S)-3-methoxycyclopentyl)-6-(2-methyl-6-(4H-1,2,4-triazol-3-yl)pyridin-3-yl)-3,4-dihydropyrazino[2,3-b]pyrazin-2(1H)-one], the IC50 fell in the range of 0.005 to 250 nM.

For the compound `COCCN1C(=O)CNc2ncc(-c3ccc(-c4nc[nH]n4)nc3)nc21` [Example 163, 7-(6-(1H-1,2,4-triazol-3-yl)pyridin-3-yl)-1-(2-methoxyethyl)-3,4-dihydropyrazino[2,3-b]pyrazin-2(1H)-one], the half-maximal inhibitory concentration (IC50) lay within 0.005 to 250 nM.

Turning to `Cc1nc(-c2nnc[nH]2)ccc1-c1cnc2c(n1)N1CCOCC1C(=O)N2` (stereo not drawn) [Example 100, 9-(6-(4H-1,2,4-triazol-3-yl)-2-methyl-3-pyridyl)-6,11,4a-trihydromorpholino[4,3-e]pyrazino[2,3-b]pyrazin-5-one], the IC50 is 250 to 500 nM.

Regarding `CC(C)(O)c1ccc(-c2cnc3c(n2)N(CC2CCOC2)CC(=O)N3)cn1` (stereo not drawn) [Example 103, 6-(6-(2-hydroxypropan-2-yl)pyridin-3-yl)-4-((tetrahydrofuran-3-yl)methyl)-3,4-dihydropyrazino[2,3-b]pyrazin-2(1H)-one], the IC50 is 500 to 1000 nM.

For `CO[C@H]1CC[C@H](N2C(=O)CNc3ncc(-c4ccc(-c5nc[nH]n5)nc4)nc32)CC1` [Example 171, 7-(6-(1H-1,2,4-triazol-3-yl)pyridin-3-yl)-1-(trans-4-methoxycyclohexyl)-3,4-dihydropyrazino[2,3-b]pyrazin-2(1H)-one], the half-maximal inhibitory concentration (IC50) fell in the range of 0.005 to 250 nM.

With `CO[C@@H]1CC[C@@H](N2C(=O)CNc3ncc(-c4ccc(-c5nnc[nH]5)nc4C)nc32)C1` [Example 227, 1-((1R,3R)-3-methoxycyclopentyl)-7-(2-methyl-6-(4H-1,2,4-triazol-3-yl)pyridin-3-yl)-3,4-dihydropyrazino[2,3-b]pyrazin-2(1H)-one], the IC50 is 0.005 to 250 nM.

Consider `Cc1cc(C(N)=O)ncc1-c1cnc2c(n1)N(CC1CCOCC1)C(=O)CN2` [Example 199, 4-methyl-5-(7-oxo-8-((tetrahydro-2H-pyran-4-yl)methyl)-5,6,7,8-tetrahydropyrazino[2,3-b]pyrazin-2-yl)picolinamide], for which the IC50 was 1000 to 10000 nM.

With `Cc1cc(-c2nc[nH]n2)c(F)cc1-c1cnc2c(n1)N(C(C)C)CC(=O)N2` [Example 25, 6-(5-fluoro-2-methyl-4-(1H-1,2,4-triazol-3-yl)phenyl)-4-isopropyl-3,4-dihydropyrazino[2,3-b]pyrazin-2(1H)-one], the IC50 fell in the range of 0.005 to 250 nM.

Regarding `COCCN1CC(=O)Nc2ncc(-c3ccc(-c4nc[nH]n4)nc3)nc21` [Example 16], the IC50 fell in the range of 0.005 to 250 nM.

As to `CC(C)(O)c1ccc(-c2cnc3c(n2)N(CC2CCCC2)CC(=O)N3)cn1` [Example 104, 4-(cyclopentylmethyl)-6-(6-(2-hydroxypropan-2-yl)pyridin-3-yl)-3,4-dihydropyrazino[2,3-b]pyrazin-2(1H)-one], the IC50 fell in the range of 0.005 to 250 nM.

As for `C[C@@H](O)c1ccc(-c2cnc3c(n2)N(CCC2CCOCC2)CC(=O)N3)cn1` [Example 75, (R)-6-(6-(1-hydroxyethyl)pyridin-3-yl)-4-(2-(tetrahydro-2H-pyran-4-yl)ethyl)-3,4-dihydropyrazino[2,3-b]pyrazin-2(1H)-one], the IC50 was 0.005 to 250 nM.

`O=C1CNc2ncc(-c3ccc4cc[nH]c4c3)nc2N1CCC1CCOCC1` [Example 232, 7-(1H-indol-6-yl)-1-(2-(tetrahydro-2H-pyran-4-yl)ethyl)-3,4-dihydropyrazino[2,3-b]pyrazin-2(1H)-one]: the IC50 lay in the range of 250 to 500 nM.

As for `Cc1cc(-c2nc[nH]n2)c(F)cc1-c1cnc2c(n1)N([C@H]1CC[C@H](O)CC1)C(=O)CN2` [Example 174, 7-(5-fluoro-2-methyl-4-(1H-1,2,4-triazol-3-yl)phenyl)-1-(trans-4-hydroxycyclohexyl)-3,4-dihydropyrazino[2,3-b]pyrazin-2(1H)-one], the IC50 was 0.005 to 250 nM.

In the case of `COCCN1CC(=O)Nc2ncc(-c3ccc(-c4nnc[nH]4)cc3)nc21` [Example 144, 6-(4-(4H-1,2,4-triazol-3-yl)phenyl)-4-(2-methoxyethyl)-3,4-dihydropyrazino[2,3-b]pyrazin-2(1H)-one], the IC50 was 0.005 to 250 nM.

For `Cc1cc(-c2nnc[nH]2)ccc1-c1cnc2c(n1)NC1(CCCC1)C(=O)N2` [Example 64, 7′-(2-methyl-4-(4H-1,2,4-triazol-3-yl)phenyl)-1′H-spiro[cyclopentane-1,2′-pyrazino[2,3-b]pyrazin]-3′(4′H)-one], the IC50 lay within 250 to 500 nM.

Turning to `CC(C)(O)c1ccc(-c2cnc3c(n2)N(CCC2CCCOC2)CC(=O)N3)cn1` (stereo not drawn) [Example 109, 6-(6-(2-hydroxypropan-2-yl)pyridin-3-yl)-4-(2-(tetrahydro-2H-pyran-3-yl)ethyl)-3,4-dihydropyrazino[2,3-b]pyrazin-2(1H)-one], the IC50 was in the range of 0.005 to 250 nM.
